Measured values: paper PMC2713172 (Biochemistry, 2008)

Key:
[1] = target: T1, CYP2C9 F476W mutant (Homo sapiens, UniProt P11712, F476W); experiment: 1H-NMR T1 relaxation, distances of ligand protons from the heme iron
[2] = target: T2, CYP2C9 F114L/F476L double mutant (Homo sapiens, UniProt P11712, F114L/F476L)
[3] = target: CYP2C9 F476L mutant (Homo sapiens, UniProt P11712, F476L)
[4] = target: CYP2C9 F114W mutant (Homo sapiens, UniProt P11712, F114W)
[5] = target: T2, CYP2C9 F114L/F476L double mutant; experiment: biochemical
[6] = target: CYP2C9 F100L mutant (Homo sapiens, UniProt P11712, F100L); settings: F100L
[7] = target: T1, CYP2C9 F476W mutant; experiment: biochemical
[8] = target: T1, CYP2C9 F476W mutant

T1, 2C9 ([1]; proton H2): 2.56 (0.15) seconds
r, distance of proton from the heme iron ([1]; proton H2): 6.58 (0.28) angstroms
T1, 2C9 + CO ([1]; proton H2, dithionite/CO): 2.34 (0.14) seconds
T1, 2C9 ([1]; proton H4′): 2.88 (0.14) seconds
r, distance of proton from the heme iron ([1]; proton H4′): 6.40 (0.32) angstroms
T1, 2C9 + CO ([1]; proton H4′, dithionite/CO): 2.55 (0.16) seconds
T1, 2C9 ([1]; proton H5): 2.11 (0.10) seconds
r, distance of proton from the heme iron ([1]; proton H5): 6.47 (0.24) angstroms
T1, 2C9 + CO ([1]; proton H5, dithionite/CO): 2.24 (0.18) seconds
T1, 2C9 ([1]; proton H6): 1.78 (0.08) seconds
r, distance of proton from the heme iron ([1]; proton H6): 6.79 (0.22) angstroms
T1, 2C9 + CO ([1]; proton H6, dithionite/CO): 1.85 (0.08) seconds
T1, 2C9 ([1]; protons CH3): 0.67 (0.01) seconds
r, distance of proton from the heme iron ([1]; protons CH3): 5.62 (0.25) angstroms
T1, 2C9 + CO ([1]; protons CH3, dithionite/CO): 0.65 (0.03) seconds
T1, 2C9 ([1]; protons H2′/6′): 2.38 (0.06) seconds
r, distance of proton from the heme iron ([1]; protons H2′/6′): 7.15 (0.13) angstroms
T1, 2C9 + CO ([1]; protons H2′/6′, dithionite/CO): 2.54 (0.07) seconds
T1, 2C9 ([1]; protons H3′/5′): 2.39 (0.08) seconds
r, distance of proton from the heme iron ([1]; protons H3′/5′): 6.49 (0.20) angstroms
T1, 2C9 + CO ([1]; protons H3′/5′, dithionite/CO): 2.39 (0.16) seconds
percent of wild-type kcat/Km [2]: 3%
percent of wild-type kcat/Km ([3]; F476L): 29%
decrease of the efficiency of metabolism ([3]; F476→L mutation vs wild-type): 70%
percent of wild-type kcat/Km [4]: 120%
kcat ([4]; substrate hydroxylation): 9.2 ± 0.4 min⁻¹
Kd [5]: 9.9 ± 1.3 µM
percent of wild-type ΔA/K [6]: 137%
ΔA/K [6]: 7.3 μM^−1 × 10^−3
ΔAmax (maximum observed difference 390–420 nm) [6]: 16 ± 0.3 ×10^−3
Kd [7]: 18.3 ± 1.9 µM
H2O2/O2 [8]: 0.71
H2O/Metabolite [8]: 1.6
Metabolite/NADPH ([8]; coupling efficiency): 0.06
Compound: C[C@H](C(=O)O)c1ccc(-c2ccccc2)c(F)c1 [(S)-flurbiprofen]
